Measured values: US12139487B2, “Compounds and uses thereof” (Foghorn Therapeutics Inc., priority 2022, dated 2024)

System: BRM-dependent transcription (BRG1 mutant lung cancer cell line A549)
Test: BRM-dependent transcription, MMTV luciferase reporter in BRG1 mutant A549 cells
Type: cell-based
Details: Table 11; for IC50: Homo sapiens, A549, 6 h, A549-MMTV luciferase reporter, dexamethasone induced, 6 hours; for Ratio (MDA-MMTV IC50 (μM) divided by A549-MMTV IC50 (μM)): MMTV luciferase reporter cell lines, selectivity BRG1/BRM
Method: The potential inhibitory effects of compounds on BRG1 and BRM dependent transcription was study by testing the activity of against the BRG1 mutant lung cancer cell line A549 and a MDA cell line with BRM removed by CRISPR. Both cell lines were genetically engineered with a BRG1 or BRM-dependent mouse mammary tumor virus luciferase reporter. Luciferase transcription was induced by dexamethasone in the presence of compound at different concentrations and luminescence was measured using a plate reader 6 hours after stimulation.

Row | IC50 | Ratio (MDA-MMTV IC50 (μM) divided by A549-MMTV IC50 (μM)) | SMILES
1 | 17.1 nM | 26.85 | COc1ccc(-c2ccc3cnc(CNC(=O)c4cc(Cl)c5c(c4)S(=O)(=O)[C@@H](F)CCO5)cc3n2)nc1C1CC1(F)F (stereo partly drawn) [Compound 369]
2 | 20.5 nM | 27.27 | CCOc1ccc(-c2ccc3cnc(CNC(=O)c4cc(Cl)c5c(c4)S(=O)(=O)[C@@H](F)CCO5)cc3n2)nc1C1CC1(F)F (stereo partly drawn) [Compound 370]
3 | 7.9 nM | 21.86 | O=C(NCc1cc2nc(-c3ccc(C(F)F)c(C4CC4)n3)ccc2cn1)c1cc(Cl)c2c(c1)S(=O)(=O)[C@@H](F)CCO2 [Compound 371]
4 | 6.5 nM | 36.69 | CCOc1nc([C@H](C)F)ccc1-c1ccc2cnc(CNC(=O)c3cc(F)c4c(c3)S(=O)(=O)[C@@H](F)CCO4)cc2n1 [Compound 375]
5 | 11.1 nM | 43.63 | [2H]C([2H])([2H])C([2H])([2H])Oc1ccc(-c2ccc3cnc(CNC(=O)c4cc(F)c5c(c4)S(=O)(=O)[C@@]([2H])(F)C([2H])([2H])C([2H])([2H])O5)cc3n2)nc1C1CC1(F)F (stereo partly drawn) [Compound 378]
6 | 9.1 nM | 33.44 | COc1nc([C@H](F)CF)ccc1-c1ccc2cnc(CNC(=O)c3cc(Cl)c4c(c3)S(=O)(=O)[C@@H](F)COC4)cc2n1 [Compound 380]
7 | 6.8 nM | 29.06 | COc1nc([C@@H](F)CF)ccc1-c1ccc2cnc(CNC(=O)c3cc(Cl)c4c(c3)S(=O)(=O)[C@@H](F)COC4)cc2n1 [Compound 381]
8 | 9.6 nM | 40.88 | COc1nc([C@@H](F)CF)ccc1-c1ccc2cnc(CNC(=O)c3cc(Cl)c4c(c3)S(=O)(=O)[C@@H](F)CCO4)cc2n1 [Compound 382]
9 | 6.4 nM | 29.60 | [2H]C([2H])([2H])Oc1nc([C@H](C)F)ccc1-c1ccc2cnc(CNC(=O)c3cc(F)c4c(c3)S(=O)(=O)[C@@H](F)CCO4)cc2n1 [Compound 384]
10 | 20.9 nM | 22.49 | Cc1cc(C(=O)NCc2cc3nc(-c4ccc(C(F)F)c(C5CC5)n4)ccc3cn2)cc2c1OCC[C@H](F)S2(=O)=O [Compound 385]
11 | 26 nM | 23.22 | O=C(NCc1cc2nc(-n3cc(F)c(OC4CC4)n3)ccc2cn1)c1cc(F)c2c(c1)S(=O)(=O)[C@@H](F)CCO2 [Compound 386]
12 | 17.3 nM | 34.06 | O=C(NCc1cc2nc(-c3cccc(OCC(F)F)n3)ccc2cn1)c1cc(Cl)c2c(c1)S(=O)(=O)[C@@H](F)COC2 [Compound 387]
13 | 7.3 nM | 26.43 | COc1nc(OC(F)F)ccc1-c1ccc2cnc(CNC(=O)c3cc(F)c4c(c3)S(=O)(=O)[C@@H](F)CCO4)cc2n1 [Compound 388]
14 | 3.2 nM | 26.77 | C[C@H](F)c1ccc(-c2ccc3cnc(CNC(=O)c4cc(F)c5c(c4)S(=O)(=O)[C@@H](F)CCO5)cc3n2)c(OC(F)F)n1 [Compound 389]
15 | 4.7 nM | 24.22 | O=C(NCc1cc2nc(-c3ccc([C@H](F)CF)nc3OC(F)F)ccc2cn1)c1cc(F)c2c(c1)S(=O)(=O)[C@@H](F)CCO2 [Compound 392]
16 | 9.2 nM | 24.90 | [2H]C([2H])([2H])Oc1nc([C@H](F)CF)ccc1-c1ccc2cnc(CNC(=O)c3cc(F)c4c(c3)S(=O)(=O)[C@@H](F)CCO4)cc2n1 [Compound 394]
17 | 13.8 nM | 25.74 | CC(C)c1ccc(-c2ccc3cnc(CNC(=O)c4cc(F)c5c(c4)S(=O)(=O)[C@@H](F)CCO5)cc3n2)nc1C1CC1 [Compound 396]
18 | 12.9 nM | 24.67 | O=C(NCc1cc2nc(-c3ccc(C(F)F)c(C4CC4(F)F)n3)ccc2cn1)c1cc(F)c2c(c1)S(=O)(=O)[C@@H](F)CCO2 (stereo partly drawn) [Compound 399]
19 | 14 nM | 27.49 | COC1(c2cccc(-c3ccc4cnc(CNC(=O)c5cc(F)c6c(c5)S(=O)(=O)[C@@H](F)CCO6)cc4n3)n2)CC1 [Compound 403]
20 | 15.6 nM | 36.02 | O=C(NCc1cc2nc(-c3cccc(OC(F)F)n3)ccc2cn1)c1cc(C(F)F)c2c(c1)S(=O)(=O)[C@@H](F)COC2 [Compound 404]
21 | 2.8 nM | 22.10 | C[C@@H]1CN(c2cccc(-c3cnc4cnc(CNC(=O)c5cc(F)c6c(c5)S(=O)(=O)[C@@H](F)CCO6)cc4n3)n2)C[C@H](C)O1 [Compound 405, (4R)—N-[[2-[6-[(2R,6S)-2,6-dimethylmorpholin-4-yl]-2-pyridyl]pyrido[3,4-b]pyrazin-7-yl]methyl]-4,9-difluoro-5,5-dioxo-3,4-dihydro-2H-1,5λ6-benzoxathiepine-7-carboxamide]
22 | 14.1 nM | 25.36 | COc1nc(OC(F)F)ccc1-c1ccc2cnc(CNC(=O)c3cc(Cl)c4c(c3)S(=O)(=O)[C@@H](F)COC4)cc2n1 [Compound 409]
23 | 14.3 nM | 27.39 | COc1nc(C(F)F)ccc1-c1ccc2cnc(CNC(=O)c3cc(Br)c4c(c3)S(=O)(=O)[C@@H](F)COC4)cc2n1 [Compound 410]

Second part, the molecule before the results:

Row | SMILES | IC50 | Ratio (MDA-MMTV IC50 (μM) divided by A549-MMTV IC50 (μM))
24 | COc1nc([C@@H](C)C(F)F)ccc1-c1ccc2cnc(CNC(=O)c3cc(F)c4c(c3)S(=O)(=O)[C@@H](F)CCO4)cc2n1 [Compound 366] | 24.1 nM | 29.97
25 | COc1nc([C@](C)(F)C(F)F)ccc1-c1ccc2cnc(CNC(=O)c3cc(F)c4c(c3)S(=O)(=O)[C@@H](F)CCOC4)cc2n1 [Compound 367] | 3 nM | 17.70
26 | COc1nc([C@@](C)(F)C(F)F)ccc1-c1ccc2cnc(CNC(=O)c3cc(F)c4c(c3)S(=O)(=O)[C@@H](F)CCOC4)cc2n1 [Compound 368] | 2.2 nM | 17.34
27 | C[C@@H]1CN(c2cccc(-c3ccc4cnc(CNC(=O)c5cc(C#N)c6c(c5)S(=O)(=O)[C@@H](F)CCO6)cc4n3)n2)C[C@H](C)O1 [Compound 372] | 7.6 nM | 21.84
28 | O=C(NCc1cc2nc(-c3cnc(OC(F)F)c(C4CC4)n3)ccc2cn1)c1cc(F)c2c(c1)S(=O)(=O)[C@@H](F)CCO2 [Compound 373] | 14.9 nM | 23.16
29 | [2H]C1([2H])Oc2c(F)cc(C(=O)NCc3cc4nc(-c5ccc(OCC)c(C6CC6(F)F)n5)ccc4cn3)cc2S(=O)(=O)[C@@]([2H])(F)C1([2H])[2H] (stereo partly drawn) [Compound 374] | 17.8 nM | 54.50
30 | CCOc1nc([C@@H](C)F)ccc1-c1ccc2cnc(CNC(=O)c3cc(F)c4c(c3)S(=O)(=O)[C@@H](F)CCO4)cc2n1 [Compound 376] | 15.3 nM | 22.09
31 | [2H]C1([2H])OC([2H])([2H])[C@H](F)S(=O)(=O)c2cc(C(=O)NCc3cc4nc(-c5cccc(OC(F)F)n5)ccc4cn3)cc(F)c21 [Compound 379] | 20 nM | 22.55
32 | COc1nc([C@@H](F)CF)ccc1-c1ccc2cnc(CNC(=O)c3cc(Br)c4c(c3)S(=O)(=O)[C@@H](F)CCO4)cc2n1 [Compound 383] | 21.8 nM | 24.64
33 | CCOc1nc([C@H](F)CF)ccc1-c1ccc2cnc(CNC(=O)c3cc(F)c4c(c3)S(=O)(=O)[C@@H](F)CCO4)cc2n1 [Compound 390] | 7.4 nM | 22.68
34 | O=C(NCc1cc2nc(-c3ccc([C@@H](F)CF)nc3OC(F)F)ccc2cn1)c1cc(F)c2c(c1)S(=O)(=O)[C@@H](F)CCO2 [Compound 391] | 2.1 nM | 24.21
35 | C#Cc1cc(C(=O)NCc2cc3nc(-c4cccc(N5C[C@@H](C)O[C@@H](C)C5)n4)ccc3cn2)cc2c1COC[C@H](F)S2(=O)=O [Compound 393] | 20.3 nM | 36.31
36 | CCOc1nc([C@H](C)F)ccc1-c1ccc2cnc(CNC(=O)c3cc(F)c4c(c3)S(=O)(=O)[C@@H](F)COC4)cc2n1 [Compound 395] | 4.7 nM | 21.65
37 | Cc1cc(C(=O)NCc2cc3nc(-c4ccc(C(F)F)c(C5CC5)n4)ccc3cn2)cc2c1COC[C@H](F)S2(=O)=O [Compound 397] | 5.3 nM | 29.48
38 | O=C(NCc1cc2nc(-c3ccc(OC(F)F)c(C4CC4)n3)ccc2cn1)c1cc(Br)c2c(c1)S(=O)(=O)[C@@H](F)CCO2 [Compound 400] | 25.1 nM | 47.75
39 | CC(C)c1ccc(-c2ccc3cnc(CNC(=O)c4cc(Br)c5c(c4)S(=O)(=O)[C@@H](F)CCO5)cc3n2)c(OC(F)F)n1 [Compound 402] | 21.7 nM | 26.98
40 | O=C(NCc1cc2nc(-c3ccc([C@@H](F)CF)c(C4CC4)n3)ccc2cn1)c1cc(F)c2c(c1)S(=O)(=O)[C@@H](F)CCO2 [Compound 406] | 5.9 nM | 27.42
41 | C=Cc1cc(C(=O)NCc2cc3nc(-c4cccc(N5C[C@@H](C)O[C@@H](C)C5)n4)ccc3cn2)cc2c1OCC[C@H](F)S2(=O)=O [Compound 407] | 11.7 nM | 29.00
42 | O=C(NCc1cc2nc(-c3ccc(OC(F)F)c(C4CC4)n3)ccc2cn1)c1cc(Br)c2c(c1)S(=O)(=O)[C@@H](F)COC2 [Compound 408] | 16.5 nM | 32.34
